Measurements from patent US11845760B2, “PRMT5 inhibitors” (AMGEN INC., priority 2020, dated 2023).

Experiments:
HCT116 WT cells = assay: HCT116 WT cell line proliferation (CellTiter-Glo cell viability, 6 days); format: cell-based; conditions: Homo sapiens, HCT-116, 144 h, HCT116 WT (parent) cells, 6 days of treatment, CellTiter-Glo cell viability; read-out: HCT-116 WT IC50
Procedure, shortened: (§1)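 Viability by CellTiter-Glo after 6 days' drug exposure in wild-type HCT116 and its MTAP-null knockout, with DMSO-only control. Dosing used either 1:3 steps (top 1 or 10 μM) or 22 points in 1:2 steps (top 10 or 50 μM). IC50 taken where the fitted curve crosses 50% of control.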

HCT116 MTAP null cells = assay: HCT116 MTAP null cell line proliferation (CellTiter-Glo cell viability, 6 days); format: cell-based; conditions: HCT116-MTAP null, 144 h, HCT116 MTAP null cells, 6 days of treatment, CellTiter-Glo cell viability; read-out: HCT-116 MTAP null IC50
Procedure, shortened: as §1

Row | Structure (SMILES) | IC50 (HCT116 WT cells) [µM] | IC50 (HCT116 MTAP null cells) [µM]
1 | Cn1ncc2c(N)nc3cnc(C(=O)N4CCOC[C@@H]4c4ccc(OC(F)F)nn4)cc3c21 [Example 451, (4-amino-1-methyl-1H-pyrazolo[4,3-c][1,7]naphthyridin-8-yl)((3S)-3-(6-(difluoromethoxy)-3-pyridazinyl)-4-morpholinyl)methanone] | 15.3 | 0.162
2 | Nc1nc2ccc(C(=O)N3CCOC[C@@H]3c3ccc(OC(F)(F)F)cc3)cc2c2c1COCC2 [Example 484, (5-amino-2,4-dihydro-1H-pyrano[3,4-c]quinolin-9-yl)-[(3S)-3-[4-(trifluoromethoxy)phenyl]morpholin-4-yl]methanone] | > 10 | 0.656
3 | Nc1nc2cnc(C(=O)N3CCOC[C@@H]3c3ccc(C(F)(F)F)cc3)cc2c2cnccc12 [Example 501, (5-aminopyrido[4,3-c][1,7]naphthyridin-9-yl)((3S)-3-(4-(trifluoromethyl)phenyl)-4-morpholinyl)methanone] | 0.689 | 0.037
4 | Nc1nc2ccc(C(=O)N3CCOC[C@@H]3c3ccc(C(F)(F)F)cc3)cc2c2cncnc12 [Example 502, (5-aminopyrimido[4,5-c]quinolin-9-yl)((3S)-3-(4-(trifluoromethyl)phenyl)-4-morpholinyl)methanone] | 11.6 | 0.819
5 | Nc1nc2ccc(C(=O)N3CCOC[C@@H]3c3ccc(C(F)(F)F)cc3)cc2c2cnccc12 [Example 503, (5-aminobenzo[c][2,6]naphthyridin-9-yl)((3S)-3-(4-(trifluoromethyl)phenyl)-4-morpholinyl)methanone] | 0.867 | 0.039
6 | Nc1nc2cnc(C(=O)N3CCOC[C@@H]3c3ccc(C(F)(F)F)cc3)cc2c2cncnc12 [Example 504, (5-aminopyrimido[4,5-c][1,7]naphthyridin-9-yl)((3S)-3-(4-(trifluoromethyl)phenyl)-4-morpholinyl)methanone] | 6.38 | 0.81
7 | Nc1nc2cnc(C(=O)N3CCOC[C@@H]3c3ccc(OC(F)(F)F)cc3)cc2c2c1COC2 [Example 506, (4-amino-1,3-dihydrofuro[3,4-c][1,7]naphthyridin-8-yl)-[(3S)-3-[4-(trifluoromethoxy)phenyl]morpholin-4-yl]methanone] | 2.53 | 0.061
8 | Nc1nc2ncc(C(=O)N3CCOC[C@@H]3c3ccc(OC(F)(F)F)cc3)cc2c2c1COC2 [Example 507, (4-amino-1,3-dihydrofuro[3,4-c][1,8]naphthyridin-8-yl)-[(3S)-3-[4-(trifluoromethoxy)phenyl]morpholin-4-yl]methanone] | > 10 | 0.843
9 | Nc1nc2ccc(C(=O)N3CCOC[C@@H]3c3ccc(C(F)(F)C(F)(F)F)cc3)cc2c2c1COC2 [Example 510, (4-amino-1,3-dihydrofuro[3,4-c]quinolin-8-yl)((3S)-3-(4-(pentafluoroethyl)phenyl)-4-morpholinyl)methanone] | 1.58 | 0.043
10 | Nc1nc2cnc(C(=O)N3CCOC[C@@H]3c3ccc(C(F)(F)C(F)(F)F)cc3)cc2c2c1COC2 [Example 511] | 1.13 | 0.043
11 | Nc1nc2cnc(C(=O)N3CCOC[C@@H]3c3ccc(OC(F)(F)F)cc3)cc2c2c1CCC2 [Example 514, (6-amino-8,9-dihydro-7H-cyclopenta[c][1,7]naphthyridin-2-yl)((3S)-3-(4-(trifluoromethoxy)phenyl)-4-morpholinyl)methanone] | 2.59 | 0.21
12 | C[C@@H]1COC[C@H](c2ccc(C(F)(F)F)cn2)N1C(=O)c1cc2c3c(c(N)nc2cn1)CCC3 [Example 515, (6-amino-8,9-dihydro-7H-cyclopenta[c][1,7]naphthyridin-2-yl)((3R,5S)-3-methyl-5-(5-(trifluoromethyl)-2-pyridinyl)-4-morpholinyl)methanone] | 0.541 | 0.047
13 | Nc1nc2cnc(C(=O)N3CCOC[C@@H]3c3ccc(OC(F)F)cn3)cc2c2c1COC2 [Example 516, (4-amino-1,3-dihydrofuro[3,4-c][1,7]naphthyridin-8-yl)((3S)-3-(5-(difluoromethoxy)-2-pyridinyl)-4-morpholinyl)methanone] | 9.12 | 0.211
14 | C[C@@H]1COC[C@H](c2ccc(C(F)(F)F)cn2)N1C(=O)c1cc2c(cc1F)nc(N)c1c2cnn1C [Example 517, (4-amino-7-fluoro-3-methyl-3H-pyrazolo[3,4-c]quinolin-8-yl)((3R,5S)-3-methyl-5-(5-(trifluoromethyl)-2-pyridinyl)-4-morpholinyl)methanone] | 0.151 | 0.008
15 | Cn1ncc2c3cc(C(=O)N4CCOC[C@@H]4c4ccc(C(F)(F)F)cc4)c(F)cc3nc(N)c21 [Example 518, (4-amino-7-fluoro-3-methyl-3H-pyrazolo[3,4-c]quinolin-8-yl)((3S)-3-(4-(trifluoromethyl)phenyl)-4-morpholinyl)methanone] | 4.69 | 0.086
16 | C[C@@H]1COC[C@H](c2ccc(C(F)(F)F)cn2)N1C(=O)c1cc2c(cc1F)nc(N)c1cnn(C)c12 [Example 519, (4-amino-7-fluoro-1-methyl-1H-pyrazolo[4,3-c]quinolin-8-yl)((3R,5S)-3-methyl-5-(5-(trifluoromethyl)-2-pyridinyl)-4-morpholinyl)methanone] | 0.026 | 0.004
17 | C[C@@H]1COC[C@H](c2ccc(C(F)(F)F)cn2)N1C(=O)c1cc2c(cn1)nc(N)c1cnn(C)c12 [Example 520, (4-amino-1-methyl-1H-pyrazolo[4,3-c][1,7]naphthyridin-8-yl)((3R,5S)-3-methyl-5-(5-(trifluoromethyl)-2-pyridinyl)-4-morpholinyl)methanone] | 0.12 | 0.018
18 | Cn1ncc2c(N)nc3ccc(C(=O)N4CCOC[C@@H]4c4ccc(C(F)(F)F)cc4)cc3c21 [Example 521, (4-amino-1-methyl-1H-pyrazolo[4,3-c]quinolin-8-yl)((3S)-3-(4-(trifluoromethyl)phenyl)-4-morpholinyl)methanone] | 2.08 | 0.03
19 | C[C@@H]1COC[C@H](c2ccc(C(F)(F)F)cn2)N1C(=O)c1cc2c3c(c(N)nc2cn1)COC3 [Example 522, (4-amino-1,3-dihydrofuro[3,4-c][1,7]naphthyridin-8-yl)((3R,5S)-3-methyl-5-(5-(trifluoromethyl)-2-pyridinyl)-4-morpholinyl)methanone] | 0.509 | 0.03
20 | C[C@@H]1COC[C@H](c2ccc(C(F)(F)F)cc2)N1C(=O)c1cc2c3c(c(N)nc2cn1)COC3 [Example 523, (4-amino-1,3-dihydrofuro[3,4-c][1,7]naphthyridin-8-yl)((3R,5S)-3-methyl-5-(4-(trifluoromethyl)phenyl)-4-morpholinyl)methanone] | 0.213 | 0.009
21 | C[C@@H]1COC[C@H](c2ccc(C(F)(F)F)nc2)N1C(=O)c1cc2c3c(c(N)nc2cn1)COC3 [Example 524, (4-amino-1,3-dihydrofuro[3,4-c][1,7]naphthyridin-8-yl)((3R,5S)-3-methyl-5-(6-(trifluoromethyl)-3-pyridinyl)-4-morpholinyl)methanone] | 1.24 | 0.031
22 | C[C@@H]1COC[C@H](c2ccc(OC(F)(F)F)cc2)N1C(=O)c1cc2c3c(c(N)nc2cn1)COC3 [Example 525, (4-amino-1,3-dihydrofuro[3,4-c][1,7]naphthyridin-8-yl)((3R,5S)-3-methyl-5-(4-(trifluoromethoxy)phenyl)-4-morpholinyl)methanone] | 0.372 | 0.019
23 | C[C@@H]1COC[C@H](c2ccc(C(F)(F)F)cc2)N1C(=O)c1cc2c3c(c(N)nc2cc1F)COC3 [Example 526, (4-amino-7-fluoro-1,3-dihydrofuro[3,4-c]quinolin-8-yl)((3R,5S)-3-methyl-5-(4-(trifluoromethyl)phenyl)-4-morpholinyl)methanone] | 0.12 | 0.006
24 | C[C@@H]1COC[C@H](c2ccc(C(F)(F)F)cc2)N1C(=O)c1ccc2nc(N)c3c(c2c1)COC3 [Example 527, (4-amino-1,3-dihydrofuro[3,4-c]quinolin-8-yl)((3R,5S)-3-methyl-5-(4-(trifluoromethyl)phenyl)-4-morpholinyl)methanone] | 0.503 | 0.027
25 | Nc1nc2cc(F)c(C(=O)N3CCOC[C@@H]3c3ccc(C(F)(F)F)cc3)cc2c2c1COC2 [Example 528, (4-amino-7-fluoro-1,3-dihydrofuro[3,4-c]quinolin-8-yl)((3S)-3-(4-(trifluoromethyl)phenyl)-4-morpholinyl)methanone] | 1.21 | 0.029
26 | Nc1nc2cc(Cl)c(C(=O)N3CCOC[C@@H]3c3ccc(C(F)(F)F)cc3)cc2c2c1COC2 [Example 529, (4-amino-7-chloro-1,3-dihydrofuro[3,4-c]quinolin-8-yl)((3S)-3-(4-(trifluoromethyl)phenyl)-4-morpholinyl)methanone] | 0.502 | 0.018
27 | C[C@@H]1COC[C@H](c2ccc(OC(F)(F)F)cc2)N1C(=O)c1cc2c3c(c(N)nc2cc1Cl)COC3 [Example 530, (4-amino-7-chloro-1,3-dihydrofuro[3,4-c]quinolin-8-yl)((3R,5S)-3-methyl-5-(4-(trifluoromethoxy)phenyl)-4-morpholinyl)methanone] | 0.06 | 0.004
28 | C[C@@H]1COC[C@H](c2ccc(C(F)(F)F)cc2)N1C(=O)c1cc2c(cc1F)nc(N)c1c2cnn1C [Example 531, (4-amino-7-fluoro-3-methyl-3H-pyrazolo[3,4-c]quinolin-8-yl)((3R,5S)-3-methyl-5-(4-(trifluoromethyl)phenyl)-4-morpholinyl)methanone] | 0.215 | 0.013
